Measurements: patent US8545876B1, “Modified drugs for use in liposomal nanoparticles” (The University of British Columbia, priority 2008, dated 2013)
≈ marks a conversion by molar mass, not a printed value.

Legend:
[1] = cited from earlier work
[2] = test system: breast cancer cell line MDA435/LCC6; test: In vitro cytotoxicity, Alamar Blue assay; format: cell-based; conditions: Homo sapiens; MDA-MB-435/LCC6, 72-h drug exposure
Method: (§1) Anticancer activity was evaluated against a panel of 3 human cancer cell lines, including the ovarian cancer cell line ES-2, the prostate cancer cell line PC3 and the breast cancer cell line MDA435/LCC6 (BC Cancer Research Centre, Vancouver, BC) (Fields and Lancaster, Am. Biotechnol. Lab., 11:48-50 (1993); Nakayama et al., J. Immunol. Methods, 204:205-208 (1997)). Cytotoxicity was determined using the Alamar Blue assay after a 72-h drug exposure period. […] The plates were returned to the incubator for 4 h; sample fluorescence was determined at λex=530 nm and λem=590 nm. Viability was calculated according to: Cell viability (%)=(Fplus drug−Fbackground)/(Fminus drug−Fbackground)*100, where Fplus drug is the fluorescence reading in the presence of drug, Fminus drug the cell control in the absence of drug and Fbackground the background fluorescence (media alone).

[3] = test system: prostate cancer cell line PC3; test: In vitro cytotoxicity, Alamar Blue assay; format: cell-based; conditions: Homo sapiens; PC-3, 72-h drug exposure
Method: as §1

[4] = test system: ovarian cancer cell line ES-2; test: In vitro cytotoxicity, Alamar Blue assay; format: cell-based; conditions: Homo sapiens; ES-2, 72-h drug exposure
Method: as §1

[5] = Stability in mouse plasma; format: in vitro ADME; conditions: 24 hour incubation in mouse plasma, 37° C.
Method: (§2) The chemical stability of the docetaxel derivatives was determined in aqueous solutions at different pH values and temperatures, and in biological media (mouse plasma). Aliquots of the docetaxel derivatives in acetonitrile were mixed with buffered citrate/HEPES (10 mM/10 mM) solutions at pH 4.0 and 7.5, or in mouse plasma in 1 mL glass HPLC sample vials sealed with Teflon-lined caps (final volume 0.25 ml, final docetaxel derivative concentration 50 µg/ml). Drug stability was determined 1, 4 and 24 hrs after incubation at 37° C. by UPLC-UV. At the indicated time points, a 3-fold excess of methanol/0.1% TFA was added to the sample. Citrate/HEPES buffered samples were analyzed by UHPLC as described above. For plasma samples, proteins precipitated by the addition of methanol/0.1% TFA pelleted by centrifugation at 14,000×g and supernatants were analyzed for the drug derivatives. Heparanized mouse plasma was diluted to 50% with 100 mM sodium-phosphate buffer to keep the pH constant throughout the experiment.
(§3) To be suitable for formulation in LN, derivatives must be stable at pH 4 (the pH present inside the LN carrier). In addition, prodrug derivatives should readily form the active drug under physiological conditions (e.g., at pH 7.4 and/or in the presence of endogenous enzymes) once released from the LN. […] TD1-3 and TD7 were selected for loading into LN and testing of such LN for drug release in vitro.

[6] = Kinetic aqueous solubility of docetaxel derivatives in acetate buffer; conditions: for solubility: kinetic from dmso stock
Method: An aliquot was diluted 10-fold with 10 mM acetate buffer (pH 5) and the pH was checked and re-adjusted as necessary to reach pH 5. Alternatively, 10 mg of each compound was weighed into a glass vial, and 2 mL of 10 mM acetate buffer (pH 5) was added to the compound, followed by sonication of the suspension for minutes. The precipitate was then removed using Microcon MY100 filters (MW cut-off 100,000 Da) and the filtrate analyzed by UPLC-UV for drug content. The measured solubilities are kinetic solubilities determined under non-equilibrium conditions.

[7] = In vitro release of docetaxel derivatives from LN in mouse plasma; format: in vitro ADME; conditions: 37° C., same prodrug-to-lipid ratio
Method: In vitro release of docetaxel derivatives from LN was assessed in mouse plasma. Drug retention was determined by comparison of the initial prodrug-to-lipid ratio with the prodrug-to-lipid ratios found at different time points. […] LN formulations were mixed with mouse plasma at a final lipid concentration of 0.75 mg/ml, followed by incubation at 37° C. At various time points, aliquots were taken and run over Sephadex G-50 spin columns to remove the unentrapped prodrug (Pick, Arch. Biochem. Biophys., 212:186-194 (1981)). The derivative and lipid concentrations in the eluates were determined by UHPLC and liquid scintillation counting, respectively.

[8] = Chemical (hydrolytic) stability in buffered aqueous solutions; format: physicochemical; conditions: 24 hour incubation in pH 7.4 buffer, 37° C.
[9] = as above; format: physicochemical; conditions: 24 hour incubation in pH 4 buffer, 37° C.
Method: as §2, §3

[10] = 10 mM acetate buffer with 10% (v/v) ethanol, pH 5, aqueous with cosolvent or surfactant or cyclodextrin
[11] = 10 mM acetate buffer, pH 5, aqueous buffer

Structure (SMILES) | Solubility in Water [1] | Prodrug levels (% remaining), Plasma [5] | Prodrug levels (% remaining), pH 7.4 [8] [%] | Prodrug levels (% remaining), pH 4 [9] [%] | further results
C[C@@H]1[C@H](O)[C@@H](C)/C=C/C=C/C=C/C=C/C=C/C=C/C=C/[C@H](O[C@@H]2O[C@H](C)[C@@H](O)[C@H](N)[C@@H]2O)C[C@@H]2O[C@](O)(C[C@@H](O)C[C@@H](O)[C@H](O)CC[C@@H](O)C[C@@H](O)CC(=O)O[C@H]1C)C[C@H](O)[C@H]2C(=O)O [Amphotericin B] | 750 µg/mL (≈ 812 µM) |  |  |  | 
CC(C)CN(C[C@@H](O)[C@H](Cc1ccccc1)NC(=O)O[C@H]1CCOC1)S(=O)(=O)c1ccc(N)cc1 [Amprenavir] | 36 µg/mL (≈ 71.2 µM) |  |  |  | 
C[C@@H]1C[C@H]2[C@@H]3CCC4=CC(=O)C=C[C@]4(C)[C@@]3(F)[C@@H](O)C[C@]2(C)[C@@]1(O)C(=O)CO [Dexamethasone] | 89 µg/mL (≈ 227 µM) |  |  |  | 
CC(=O)O[C@@]12CO[C@@H]1C[C@H](O)[C@@]1(C)C(=O)[C@H](O)C3=C(C)[C@@H](OC(=O)[C@H](O)[C@@H](NC(=O)OC(C)(C)C)c4ccccc4)C[C@@](O)([C@@H](OC(=O)c4ccccc4)[C@H]21)C3(C)C [Docetaxel, reference compound] |  |  |  |  | IC50 [2]: < 0.1 nM; IC50 [3]: 1 nM; IC50 [4]: 0.1 nM
C=C1/C(=C\C=C2/CCC[C@]3(C)[C@@H]([C@H](C)/C=C/[C@H](C)C(C)C)CC[C@@H]23)C[C@@H](O)C[C@@H]1O [Doxercalciferol] | relatively insoluble |  |  |  | 
COc1c(C)c2c(c(O)c1C/C=C(\C)CCC(=O)O)C(=O)OC2 [Mycophenolic acid] | insoluble |  |  |  | 
C[C@H](/C=C/[C@H](C)C(C)(C)O)[C@H]1CC[C@H]2/C(=C/C=C3C[C@@H](O)C[C@H](O)C3)CCC[C@]12C [Paricalcitol] | 6.8 µg/mL (≈ 16.3 µM) |  |  |  | 
C[C@]12C=CC(=O)C=C1CC[C@@H]1[C@@H]2C(=O)C[C@@]2(C)[C@H]1CC[C@]2(O)C(=O)CO [Prednisone] | 312 µg/mL (≈ 870 µM) |  |  |  | 
CC(C)c1cccc(C(C)C)c1O [Propofol] | 124 µg/mL (≈ 696 µM) |  |  |  | 
CO[C@H]1C[C@@H]2CC[C@@H](C)[C@@](O)(O2)C(=O)C(=O)N2CCCC[C@H]2C(=O)O[C@H]([C@H](C)C[C@@H]2CC[C@@H](O)[C@H](OC)C2)CC(=O)[C@H](C)/C=C(\C)[C@@H](O)[C@@H](OC)C(=O)[C@H](C)C[C@H](C)/C=C/C=C/C=C/1C [Sirolimus] | insoluble in water |  |  |  | 
CC(=O)O[C@@]12CO[C@@H]1C[C@H](O)[C@@]1(C)C(=O)[C@H](O)C3=C(C)[C@@H](OC(=O)[C@H](OC(=O)CN4CCN(C)CC4)[C@@H](NC(=O)OC(C)(C)C)c4ccccc4)C[C@@](O)([C@@H](OC(=O)c4ccccc4)C12)C3(C)C (stereo partly drawn) [TD2, N-methyl-piperazinyl acetic acid ester] |  | 31% | 59 | 99 | solubility [6, 10]: 25000 µg/mL (≈ 26400 µM); solubility [6, 11]: 2000 µg/mL (≈ 2110 µM); in vitro retention / release rate in DSPC/chol LN relative to TD1 [7]: released at a slightly faster rate
CC(=O)O[C@@]12CO[C@@H]1C[C@H](O)[C@@]1(C)C(=O)[C@H](O)C3=C(C)[C@@H](OC(=O)[C@H](OC(=O)CCCCN4CCN(C)CC4)[C@@H](NC(=O)OC(C)(C)C)c4ccccc4)C[C@@](O)([C@@H](OC(=O)c4ccccc4)C12)C3(C)C (stereo partly drawn) [TD3, N-methyl-piperazinyl pentanoic acid ester] |  | 29% | 69 | 99 | solubility [6, 10]: 4100 µg/mL (≈ 4140 µM); solubility [6, 11]: 2500 µg/mL (≈ 2520 µM); in vitro retention / release rate in DSPC/chol LN relative to TD1 [7]: released at a slightly faster rate
CC(=O)O[C@@]12CO[C@@H]1C[C@H](O)[C@@]1(C)C(=O)[C@H](O)C3=C(C)[C@@H](OC(=O)[C@H](OC(=O)CCCN4CCOCC4)[C@@H](NC(=O)OC(C)(C)C)c4ccccc4)C[C@@](O)([C@@H](OC(=O)c4ccccc4)C12)C3(C)C (stereo partly drawn) [TD4, Morpholino butanoic acid ester] |  | 64% | 92 | 98 | solubility [6, 11]: 120 µg/mL (≈ 125 µM); Solub. in 10 mM acetate pH 5 ([6]; pH 5, no ethanol, kinetic solubility): extremely low solubility
CC(=O)O[C@@]12CO[C@@H]1C[C@H](O)[C@@]1(C)C(=O)[C@H](O)C3=C(C)[C@@H](OC(=O)[C@H](OC(=O)CN4CCOCC4)[C@@H](NC(=O)OC(C)(C)C)c4ccccc4)C[C@@](O)([C@@H](OC(=O)c4ccccc4)C12)C3(C)C (stereo partly drawn) [TD5, Morpholino acetic acid ester] |  | 45% | 64 | 81 | solubility [6, 10]: 300 µg/mL (≈ 321 µM); solubility [6, 11]: 140 µg/mL (≈ 150 µM)
CC(=O)O[C@@]12CO[C@@H]1C[C@H](O)[C@@]1(C)C(=O)[C@H](O)C3=C(C)[C@@H](OC(=O)[C@H](OC(=O)CCN4CCOCC4)[C@@H](NC(=O)OC(C)(C)C)c4ccccc4)C[C@@](O)([C@@H](OC(=O)c4ccccc4)C12)C3(C)C (stereo partly drawn) [TD6, Morpholino propionic acid ester] |  | 0% | 18 | 68 | solubility [6, 10]: 1500 µg/mL (≈ 1580 µM); solubility [6, 11]: 480 µg/mL (≈ 506 µM)
CC(=O)O[C@@]12CO[C@@H]1C[C@H](O)[C@@]1(C)C(=O)[C@H](O)C3=C(C)[C@@H](OC(=O)[C@H](OC(=O)CCCN4CCCCC4)[C@@H](NC(=O)OC(C)(C)C)c4ccccc4)C[C@@](O)([C@@H](OC(=O)c4ccccc4)C12)C3(C)C (stereo partly drawn) [TD7, Piperidinyl butanoic acid ester] |  | 8% | 13 | 94 | solubility ([6]; pH 5, aqueous buffer): 1900 µg/mL (≈ 1980 µM); in vitro retention / release rate in DSPC/chol LN relative to TD1 [7]: released at a rate mirroring that of TD1
CC(=O)O[C@@]12CO[C@@H]1C[C@H](O)[C@@]1(C)C(=O)[C@H](O)C3=C(C)[C@@H](OC(=O)[C@H](OC(=O)CN4CCCCC4)[C@@H](NC(=O)OC(C)(C)C)c4ccccc4)C[C@@](O)([C@@H](OC(=O)c4ccccc4)C12)C3(C)C (stereo partly drawn) [TD8, Piperidinyl acetic acid ester] |  | 4% | 36 | 78 | solubility ([6]; pH 5, aqueous buffer): 500 µg/mL (≈ 536 µM)
CC(=O)O[C@@]12CO[C@@H]1C[C@H](O)[C@@]1(C)C(=O)[C@H](O)C3=C(C)[C@@H](OC(=O)[C@H](OC(=O)CCCCN4CCCCC4)[C@@H](NC(=O)OC(C)(C)C)c4ccccc4)C[C@@](O)([C@@H](OC(=O)c4ccccc4)C12)C3(C)C (stereo partly drawn) [TD9, Piperidinyl pentanoic acid ester] |  | no effect | 65 | 99 | Prodrug levels (% remaining), Plasma ([5]; listed as TD-9): 60%; solubility ([6]; pH 5, aqueous buffer): 1000 µg/mL (≈ 1030 µM); solubility ([6]; pH 5, aqueous with cosolvent or surfactant or cyclodextrin): 2300 µg/mL (≈ 2360 µM)
CC(=O)O[C@@]12CO[C@@H]1C[C@H](OC(=O)CCCN1CCN(C)CC1)[C@@]1(C)C(=O)[C@H](O)C3=C(C)[C@@H](OC(=O)[C@H](O)[C@@H](NC(=O)OC(C)(C)C)c4ccccc4)C[C@@](O)([C@@H](OC(=O)c4ccccc4)C12)C3(C)C (stereo partly drawn) [TD10, 7-O-(N-methyl-piperazinylbutanoic acid ester)] |  |  |  |  | solubility ([6]; pH 5, aqueous buffer): 3000 µg/mL (≈ 3070 µM)
C=CC[C@@H]1/C=C(\C)C[C@H](C)C[C@H](OC)[C@H]2O[C@@](O)(C(=O)C(=O)N3CCCC[C@H]3C(=O)O[C@H](/C(C)=C/[C@@H]3CC[C@@H](O)[C@H](OC)C3)[C@H](C)[C@@H](O)CC1=O)[C@H](C)C[C@@H]2OC [Tacrolimus] | insoluble |  |  |  | 
CCCCC(=O)OCC(=O)[C@]1(O)Cc2c(O)c3c(c(O)c2[C@@H](O[C@H]2C[C@H](NC(=O)C(F)(F)F)[C@H](O)[C@H](C)O2)C1)C(=O)c1c(OC)cccc1C3=O [Valrubicin] | insoluble |  |  |  | 
